#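 Five compound concentrations were applied to cells in 96-well plates for 48 hours; endpoints were derived by simple linear interpolation of the resulting dose-response curve. The concentration for 50% growth inhibition is given as GI50. TGI marks complete inhibition of growth.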
# Assays:
# Experiment in all cases: NCI-60 cell line screen, 48 h
# 786-0 renal = test system: 786-0 renal
# ACHN renal = test system: ACHN renal
# HCT-15 colon = test system: HCT-15 colon
# HL-60(TB) leukemia = test system: HL-60(TB) leukemia
# HS 578T breast = test system: HS 578T breast
# OVCAR-5 ovarian = test system: OVCAR-5 ovarian
# PC-3 prostate = test system: PC-3 prostate
# SNB-19 CNS = test system: SNB-19 CNS
# SW-620 colon = test system: SW-620 colon
# T-47D breast = test system: T-47D breast
# UO-31 renal = test system: UO-31 renal
# CAKI-1 renal = test system: CAKI-1 renal
SMILES,TGI (786-0 renal) [µM],TGI (ACHN renal) [µM],TGI (HCT-15 colon) [µM],TGI (HL-60(TB) leukemia) [µM],TGI (HS 578T breast) [µM],TGI (OVCAR-5 ovarian) [µM],TGI (PC-3 prostate) [µM],TGI (SNB-19 CNS) [µM],TGI (SW-620 colon) [µM],TGI (T-47D breast) [µM],TGI (UO-31 renal) [µM],TGI (CAKI-1 renal) [µM],GI50 (ACHN renal) [µM],GI50 (CAKI-1 renal) [µM],GI50 (HCT-15 colon) [µM],GI50 (HL-60(TB) leukemia) [µM],GI50 (HS 578T breast) [µM],GI50 (SNB-19 CNS) [µM],GI50 (T-47D breast) [µM],GI50 (UO-31 renal) [µM]
CCOc1ccc(NC(=O)/C(=N\NC(C)(C)C)C2C(=O)Nc3ccccc3S2=O)cc1 (stereo not drawn),> 100,> 100,> 100,> 100,> 100,> 100,> 100,> 100,> 100,> 100,> 100,–,–,–,–,–,–,–,–,–
COc1cc(C)cc2c1c(=O)c1ccccc1n2C,> 100,> 100,> 100,83.3,78.9,> 100,> 100,> 100,> 100,–,–,> 100,–,–,–,–,–,–,–,–
CCCCSC1=N/C(=C\c2ccc(N(C)C)cc2)C(NN)=N1,> 100,> 100,> 100,> 100,> 100,> 100,> 100,> 100,> 100,> 100,–,> 100,–,–,–,–,–,–,–,–
Cc1cccc(CC(Cc2c(C)cccc2C(=O)O)C(=O)O)c1 (stereo not drawn),> 100,> 100,> 100,> 100,> 100,> 100,> 100,> 100,> 100,–,> 100,> 100,–,–,–,–,–,–,–,–
N#CC(C#N)=C(N)/C(C#N)=C/c1ccc2ccccc2n1,34.2,39.6,80.1,–,65,> 100,79.4,77.7,–,> 100,30.9,65.1,–,–,–,–,–,–,–,–
C=C1C(=O)C[C@@]23CCC[C@@]12CC(OCOC)C3 (stereo partly drawn),–,–,3.08,4.76,–,8.26,–,28.7,3.97,–,13.3,6.94,–,–,–,–,–,–,–,–
Cc1ccc(N=N/C(=N/NC(=O)c2cc(Cl)ccc2C(=O)c2ccccc2)c2ccc(N(CCC#N)CCC#N)cc2C)cc1,53.7,> 100,57.8,–,> 100,> 100,47.2,> 100,> 100,27.9,> 100,79.3,–,–,–,–,–,–,–,–
CC(C)(C)OC(=O)N(O)CCCn1cnc2c(N)ncnc21,> 100,> 100,> 100,–,> 100,> 100,> 100,> 100,> 100,> 100,> 100,–,–,–,–,–,–,–,–,–
COc1ccc(C2Oc3cc(OC)c(O)c(C)c3[C@H]2C)cc1 (stereo partly drawn),> 100,> 100,> 100,76.7,–,> 100,–,> 100,> 100,–,78,> 100,–,–,–,–,–,–,–,–
Nc1nc(Cl)cc(OCC2(CO)CC(OCc3ccccc3)C2)n1 (stereo not drawn),–,–,–,–,–,–,–,–,–,92.3,–,–,41.5,48.2,83.8,40,34,51.6,18.9,40.1
CC(C)CCC[C@@H](C)C1CCC2[C@@H]3CC=C4C[C@@H](C(=O)NCC[N+](C)(C)CCCS(=O)(=O)[O-])CC[C@]4(C)C3CC[C@@]21C (stereo partly drawn),31.1,32.5,30.9,28.3,–,–,–,36.4,30.7,–,34.3,27.2,–,–,–,–,–,–,–,–
Cc1ccc2c(c1)C(=O)N1CCC[C@H]1C=N2,> 100,> 70.9,> 76.4,–,31.5,> 93.1,> 74.4,> 100,> 83.7,> 100,> 67,> 71.7,–,–,–,–,–,–,–,–
O=C(NNC(c1ccccc1)C(F)(F)F)c1ccncc1 (stereo not drawn),> 100,> 100,> 100,> 100,–,> 100,> 100,> 100,> 100,–,–,> 100,–,–,–,–,–,–,–,–
CS(=O)(=O)c1c(N)c2nc(Cl)cn2c2nc3ccccc3nc12,> 100,> 100,> 100,–,–,> 100,–,> 100,> 100,–,> 100,> 100,–,–,–,–,–,–,–,–
CCN(CC)C(=S)SS(=O)(=O)c1ccc(Cl)cc1,> 100,> 100,> 100,–,> 100,> 100,–,> 100,37,> 100,35.7,43.5,–,–,–,–,–,–,–,–
CCN(CC)CCN1C(=O)c2c(c(-c3ccccc3)c3ccccc3c2-c2ccccc2)C1=O,> 100,> 100,> 100,> 100,> 100,> 100,> 100,> 100,> 100,–,–,> 100,–,–,–,–,–,–,–,–
C=C1C(=O)OC2/C=C(/C)C3CC(O)C(C)(CC(OC(=O)/C(C)=C/C)C12)O3 (stereo not drawn),11.5,6.71,3.61,18.3,–,21.6,–,30.8,3.46,–,18.3,4.86,–,–,–,–,–,–,–,–
Cc1cc(N=Nc2c(O)ccc3ccccc23)ccc1N=Nc1cccc([N+](C)(C)C)c1,> 92,> 84.7,> 84.4,–,47,60.8,35.1,26,46.9,> 100,29.7,62.9,–,–,–,–,–,–,–,–
CCOC(=O)c1nc2ccccc2nc1Nc1ccc(OC)c(OC)c1,> 100,> 100,> 100,> 100,> 100,> 100,–,> 100,–,> 100,> 100,> 100,–,–,–,–,–,–,–,–
C/C1=C/C(C)CC(C)OC(=O)C(C)NC(=O)C(Cc2ccc(O)c(I)c2)N(C)C(=O)C(C)NC(=O)C(C)C1 (stereo not drawn),3.79,–,12.1,< 0.01,< 0.0392,> 100,–,> 100,> 100,29.1,–,–,–,–,–,–,–,–,–,–

# Reference: PubChem BioAssay (NCI)
